ChEMBL document CHEMBL5291721, “A preclinical secondary pharmacology resource illuminates target-adverse drug reaction associations of marketed drugs” (Nat Commun, 2023)

Columns and labels:
[1] = molecular target: Histamine H3 receptor (Homo sapiens, UniProt Q9Y5N1)
[2] = molecular target: T1, Alpha-2A adrenergic receptor (Homo sapiens, UniProt P08913); format: functional, cell-based
T1 sequence (P08913 whole entry): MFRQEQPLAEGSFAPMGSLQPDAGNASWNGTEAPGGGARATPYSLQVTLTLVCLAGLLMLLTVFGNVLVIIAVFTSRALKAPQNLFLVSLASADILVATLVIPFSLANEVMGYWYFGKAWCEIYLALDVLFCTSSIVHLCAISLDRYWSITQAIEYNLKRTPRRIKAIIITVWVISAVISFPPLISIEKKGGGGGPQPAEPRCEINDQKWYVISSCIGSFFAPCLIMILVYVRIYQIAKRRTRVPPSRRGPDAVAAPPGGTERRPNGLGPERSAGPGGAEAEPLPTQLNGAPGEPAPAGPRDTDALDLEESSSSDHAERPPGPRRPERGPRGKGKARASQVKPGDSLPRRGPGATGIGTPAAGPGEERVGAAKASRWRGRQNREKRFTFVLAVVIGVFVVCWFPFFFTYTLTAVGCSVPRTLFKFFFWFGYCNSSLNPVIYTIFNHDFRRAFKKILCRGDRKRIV

[3] = molecular target: Histamine H2 receptor (Homo sapiens, UniProt P25021); format: functional, cell-based
Sequence of Histamine H2 receptor (P25021 whole entry): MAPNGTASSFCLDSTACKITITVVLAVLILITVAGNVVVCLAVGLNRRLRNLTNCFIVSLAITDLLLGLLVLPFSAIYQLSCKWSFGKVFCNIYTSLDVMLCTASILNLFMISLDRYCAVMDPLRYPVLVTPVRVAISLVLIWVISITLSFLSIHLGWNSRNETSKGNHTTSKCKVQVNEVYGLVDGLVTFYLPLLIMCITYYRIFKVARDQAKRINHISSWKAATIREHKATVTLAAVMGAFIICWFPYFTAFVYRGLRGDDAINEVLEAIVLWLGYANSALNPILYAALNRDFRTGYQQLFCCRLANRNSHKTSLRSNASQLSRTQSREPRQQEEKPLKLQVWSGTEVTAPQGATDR

[4] = molecular target: Beta-2 adrenergic receptor (Homo sapiens, UniProt P07550)
Sequence of Beta-2 adrenergic receptor (P07550 whole entry): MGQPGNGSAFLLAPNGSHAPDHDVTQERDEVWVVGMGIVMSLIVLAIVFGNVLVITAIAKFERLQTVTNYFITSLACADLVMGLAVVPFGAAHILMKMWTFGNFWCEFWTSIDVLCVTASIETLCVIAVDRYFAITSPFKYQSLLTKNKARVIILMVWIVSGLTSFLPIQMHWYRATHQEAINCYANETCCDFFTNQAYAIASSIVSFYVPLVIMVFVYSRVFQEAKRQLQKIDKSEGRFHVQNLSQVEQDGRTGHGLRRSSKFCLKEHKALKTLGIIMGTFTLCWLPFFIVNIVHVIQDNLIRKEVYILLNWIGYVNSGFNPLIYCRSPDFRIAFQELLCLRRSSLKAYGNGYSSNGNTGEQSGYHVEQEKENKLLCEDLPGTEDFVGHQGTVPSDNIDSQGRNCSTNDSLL

[5] = molecular target: T2, Cholecystokinin receptor type A (Homo sapiens, UniProt P32238)
T2 sequence (P32238 whole entry): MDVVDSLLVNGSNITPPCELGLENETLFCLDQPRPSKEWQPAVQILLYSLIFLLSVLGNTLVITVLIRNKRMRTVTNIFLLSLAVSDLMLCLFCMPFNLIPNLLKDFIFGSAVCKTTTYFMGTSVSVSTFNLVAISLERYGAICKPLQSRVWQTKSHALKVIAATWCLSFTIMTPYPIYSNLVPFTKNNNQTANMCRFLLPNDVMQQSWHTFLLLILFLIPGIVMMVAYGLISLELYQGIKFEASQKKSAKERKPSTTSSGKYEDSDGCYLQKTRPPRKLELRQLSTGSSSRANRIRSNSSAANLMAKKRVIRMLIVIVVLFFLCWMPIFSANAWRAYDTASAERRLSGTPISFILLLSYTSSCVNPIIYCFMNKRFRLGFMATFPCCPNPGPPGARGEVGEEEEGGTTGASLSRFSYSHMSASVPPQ

[6] = molecular target: 5-hydroxytryptamine receptor 2B (Homo sapiens, UniProt P41595); format: functional, cell-based
Sequence of 5-hydroxytryptamine receptor 2B (P41595 whole entry): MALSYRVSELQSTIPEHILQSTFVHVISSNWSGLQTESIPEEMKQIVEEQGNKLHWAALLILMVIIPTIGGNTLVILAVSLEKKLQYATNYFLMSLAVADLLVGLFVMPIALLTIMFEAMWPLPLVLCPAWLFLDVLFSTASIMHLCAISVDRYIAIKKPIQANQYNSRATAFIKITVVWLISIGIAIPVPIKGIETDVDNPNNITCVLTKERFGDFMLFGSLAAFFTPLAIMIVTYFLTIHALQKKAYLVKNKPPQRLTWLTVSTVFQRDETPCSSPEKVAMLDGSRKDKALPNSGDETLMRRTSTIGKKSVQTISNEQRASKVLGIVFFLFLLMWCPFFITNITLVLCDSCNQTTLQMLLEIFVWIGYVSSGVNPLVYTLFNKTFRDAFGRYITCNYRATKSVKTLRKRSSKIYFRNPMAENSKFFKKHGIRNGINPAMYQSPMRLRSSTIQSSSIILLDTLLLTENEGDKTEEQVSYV

[7] = molecular target: Beta-1 adrenergic receptor (Homo sapiens, UniProt P08588); format: functional
Sequence of Beta-1 adrenergic receptor (P08588 whole entry): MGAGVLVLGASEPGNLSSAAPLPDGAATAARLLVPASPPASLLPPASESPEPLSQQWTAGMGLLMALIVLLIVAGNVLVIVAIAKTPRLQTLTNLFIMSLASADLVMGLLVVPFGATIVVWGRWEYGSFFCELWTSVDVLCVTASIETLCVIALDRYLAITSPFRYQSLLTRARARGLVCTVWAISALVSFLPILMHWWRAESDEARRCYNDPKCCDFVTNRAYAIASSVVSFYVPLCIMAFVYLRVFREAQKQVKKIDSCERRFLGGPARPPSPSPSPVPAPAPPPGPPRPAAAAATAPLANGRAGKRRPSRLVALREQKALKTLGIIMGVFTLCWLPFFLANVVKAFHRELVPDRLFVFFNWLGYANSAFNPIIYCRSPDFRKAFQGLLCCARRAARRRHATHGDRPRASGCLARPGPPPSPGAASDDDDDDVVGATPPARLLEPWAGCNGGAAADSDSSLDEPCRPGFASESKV

[8] = molecular target: T3, Neuropeptide Y receptor type 1 (Homo sapiens, UniProt P25929)
T3 sequence (P25929 whole entry): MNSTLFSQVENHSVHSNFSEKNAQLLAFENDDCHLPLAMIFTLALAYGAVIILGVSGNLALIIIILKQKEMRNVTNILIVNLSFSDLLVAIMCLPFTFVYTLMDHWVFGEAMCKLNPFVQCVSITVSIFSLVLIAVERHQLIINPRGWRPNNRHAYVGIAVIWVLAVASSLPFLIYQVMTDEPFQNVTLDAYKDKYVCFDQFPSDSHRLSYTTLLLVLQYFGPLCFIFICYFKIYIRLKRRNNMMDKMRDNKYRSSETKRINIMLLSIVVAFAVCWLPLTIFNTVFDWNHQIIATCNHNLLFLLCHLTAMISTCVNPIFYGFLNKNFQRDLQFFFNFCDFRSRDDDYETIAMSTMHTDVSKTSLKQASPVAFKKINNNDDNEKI

[9] = molecular target: Adenosine receptor A2a (Homo sapiens, UniProt P29274)
Sequence of Adenosine receptor A2a (P29274 whole entry): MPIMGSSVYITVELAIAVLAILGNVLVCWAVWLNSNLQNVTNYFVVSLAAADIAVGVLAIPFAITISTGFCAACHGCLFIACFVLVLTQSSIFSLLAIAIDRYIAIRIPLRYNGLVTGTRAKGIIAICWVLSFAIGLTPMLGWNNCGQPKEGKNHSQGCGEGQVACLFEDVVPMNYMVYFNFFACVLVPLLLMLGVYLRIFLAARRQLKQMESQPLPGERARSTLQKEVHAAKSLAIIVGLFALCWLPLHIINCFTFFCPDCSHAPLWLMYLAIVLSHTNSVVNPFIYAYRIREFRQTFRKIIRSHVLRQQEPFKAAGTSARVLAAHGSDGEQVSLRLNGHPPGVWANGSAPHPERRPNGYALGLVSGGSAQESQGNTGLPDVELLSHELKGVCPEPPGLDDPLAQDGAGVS

[10] = molecular target: Motilin receptor (Homo sapiens, UniProt O43193)
Sequence of Motilin receptor (O43193 whole entry): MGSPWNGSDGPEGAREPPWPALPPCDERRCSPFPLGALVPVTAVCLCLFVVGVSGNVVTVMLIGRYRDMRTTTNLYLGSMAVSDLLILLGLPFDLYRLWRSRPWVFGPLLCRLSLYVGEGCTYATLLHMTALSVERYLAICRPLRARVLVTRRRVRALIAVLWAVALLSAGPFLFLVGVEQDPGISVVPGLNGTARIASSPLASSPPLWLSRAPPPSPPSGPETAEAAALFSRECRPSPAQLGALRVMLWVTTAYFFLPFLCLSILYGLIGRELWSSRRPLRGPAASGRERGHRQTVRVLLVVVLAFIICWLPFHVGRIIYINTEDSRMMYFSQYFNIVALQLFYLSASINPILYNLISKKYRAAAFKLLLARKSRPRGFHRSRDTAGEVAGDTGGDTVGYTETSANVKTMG

[11] = molecular target: Gamma-aminobutyric acid receptor subunit alpha-1 (Rattus norvegicus, UniProt P62813)
Sequence of Gamma-aminobutyric acid receptor subunit alpha-1 (P62813 whole entry): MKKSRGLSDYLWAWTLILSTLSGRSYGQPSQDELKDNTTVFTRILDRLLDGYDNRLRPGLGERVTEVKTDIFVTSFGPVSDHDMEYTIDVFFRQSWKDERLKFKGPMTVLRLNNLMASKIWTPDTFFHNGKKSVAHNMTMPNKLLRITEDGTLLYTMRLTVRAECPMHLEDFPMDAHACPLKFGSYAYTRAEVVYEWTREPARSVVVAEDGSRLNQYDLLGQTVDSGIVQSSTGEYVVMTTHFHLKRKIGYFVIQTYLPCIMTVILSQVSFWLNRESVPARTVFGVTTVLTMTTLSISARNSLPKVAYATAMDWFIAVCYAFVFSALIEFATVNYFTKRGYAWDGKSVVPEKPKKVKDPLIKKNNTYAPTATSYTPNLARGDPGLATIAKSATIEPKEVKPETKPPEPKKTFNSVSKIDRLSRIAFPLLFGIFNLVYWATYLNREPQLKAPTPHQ

[12] = molecular target: T4, Glucocorticoid receptor (Homo sapiens, UniProt P04150)
T4 sequence (P04150 whole entry): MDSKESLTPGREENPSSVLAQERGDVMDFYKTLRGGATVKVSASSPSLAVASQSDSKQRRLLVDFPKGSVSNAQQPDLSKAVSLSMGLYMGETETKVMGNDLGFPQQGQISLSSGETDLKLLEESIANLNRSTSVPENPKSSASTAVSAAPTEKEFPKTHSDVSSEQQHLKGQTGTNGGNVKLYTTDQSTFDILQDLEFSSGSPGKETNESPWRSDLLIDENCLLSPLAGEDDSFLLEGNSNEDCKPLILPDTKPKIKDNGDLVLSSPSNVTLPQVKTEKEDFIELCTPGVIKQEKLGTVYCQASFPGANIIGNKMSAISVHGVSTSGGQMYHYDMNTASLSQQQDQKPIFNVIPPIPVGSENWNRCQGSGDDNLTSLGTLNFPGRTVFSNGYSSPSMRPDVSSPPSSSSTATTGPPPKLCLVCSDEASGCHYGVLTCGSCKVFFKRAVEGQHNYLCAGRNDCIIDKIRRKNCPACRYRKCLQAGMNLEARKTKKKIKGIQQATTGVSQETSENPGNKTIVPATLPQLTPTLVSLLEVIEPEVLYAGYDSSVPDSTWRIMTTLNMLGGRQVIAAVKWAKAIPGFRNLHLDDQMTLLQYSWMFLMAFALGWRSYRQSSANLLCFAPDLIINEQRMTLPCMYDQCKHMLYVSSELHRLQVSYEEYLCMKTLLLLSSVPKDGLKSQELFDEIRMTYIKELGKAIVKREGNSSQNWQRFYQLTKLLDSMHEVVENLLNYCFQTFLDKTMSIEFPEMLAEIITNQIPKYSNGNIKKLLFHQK

[13] = molecular target: T5, Adenosine receptor A1 (Homo sapiens, UniProt P30542)
T5 sequence (P30542 whole entry): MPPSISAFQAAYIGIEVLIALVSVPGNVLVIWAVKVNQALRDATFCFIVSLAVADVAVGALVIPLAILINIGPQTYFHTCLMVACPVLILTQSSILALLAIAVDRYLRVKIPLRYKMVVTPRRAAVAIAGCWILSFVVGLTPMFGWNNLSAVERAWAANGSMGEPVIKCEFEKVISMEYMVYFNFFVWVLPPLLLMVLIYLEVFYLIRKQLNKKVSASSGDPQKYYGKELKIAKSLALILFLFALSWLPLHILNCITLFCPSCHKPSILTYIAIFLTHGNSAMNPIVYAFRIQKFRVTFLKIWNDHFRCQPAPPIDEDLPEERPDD

[14] = molecular target: D(3) dopamine receptor (Homo sapiens, UniProt P35462)
Sequence of D(3) dopamine receptor (P35462 whole entry): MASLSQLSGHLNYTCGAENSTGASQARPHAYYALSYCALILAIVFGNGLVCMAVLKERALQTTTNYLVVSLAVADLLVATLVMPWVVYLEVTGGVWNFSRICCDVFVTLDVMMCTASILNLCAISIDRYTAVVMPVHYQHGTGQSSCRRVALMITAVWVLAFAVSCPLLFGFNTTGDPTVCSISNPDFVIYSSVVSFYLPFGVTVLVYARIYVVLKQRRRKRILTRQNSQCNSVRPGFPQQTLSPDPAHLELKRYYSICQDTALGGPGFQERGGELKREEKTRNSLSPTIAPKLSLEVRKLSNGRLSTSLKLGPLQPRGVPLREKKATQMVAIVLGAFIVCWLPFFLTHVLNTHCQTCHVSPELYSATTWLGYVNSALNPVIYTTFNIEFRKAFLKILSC
Further: assay procedure not described here.

Sequence of Histamine H3 receptor (Q9Y5N1 whole entry): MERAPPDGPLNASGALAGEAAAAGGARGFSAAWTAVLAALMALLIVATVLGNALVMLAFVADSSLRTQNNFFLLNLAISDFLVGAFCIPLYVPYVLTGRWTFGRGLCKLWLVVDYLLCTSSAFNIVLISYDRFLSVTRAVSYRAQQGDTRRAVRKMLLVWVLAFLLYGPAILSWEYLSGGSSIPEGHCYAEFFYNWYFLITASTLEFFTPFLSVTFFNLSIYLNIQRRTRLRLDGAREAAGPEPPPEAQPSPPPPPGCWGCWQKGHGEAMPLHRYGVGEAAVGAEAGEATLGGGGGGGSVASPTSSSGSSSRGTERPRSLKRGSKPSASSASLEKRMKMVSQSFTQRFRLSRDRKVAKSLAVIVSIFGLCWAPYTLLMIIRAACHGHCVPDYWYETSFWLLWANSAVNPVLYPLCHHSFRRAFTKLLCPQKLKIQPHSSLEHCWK

NNC(=O)c1ccncc1 [ISONIAZID]
AC50 [1]: > 30 µM | AC50 [2]: > 30 µM | AC50 [3]: > 10 µM | AC50 [4]: > 30 µM | AC50 [5]: > 30 µM | AC50 [6]: > 30 µM | AC50 [7]: > 30 µM | AC50 [8]: > 30 µM | AC50 [9]: > 30 µM | AC50 [10]: > 30 µM | AC50 [11]: > 30 µM | AC50 [12]: > 30 µM | AC50 [13]: > 30 µM | AC50 [14]: > 30 µM

CC(c1cc2ccccc2s1)N(O)C(N)=O (stereo not drawn) [ZILEUTON]
AC50 [1]: > 10 µM | AC50 [2]: > 10 µM | AC50 [3]: > 10 µM | AC50 [4]: > 10 µM | AC50 [5]: > 10 µM | AC50 [6]: > 10 µM | AC50 [7]: > 10 µM | AC50 [8]: > 10 µM | AC50 [9]: > 10 µM | AC50 [10]: > 10 µM | AC50 [11]: > 10 µM | AC50 [12]: > 30 µM | AC50 [13]: > 10 µM | AC50 [14]: > 30 µM

CC/C=C\C/C=C\C/C=C\C/C=C\C/C=C\CCCC(=O)OCC [ICOSAPENT ETHYL]
AC50 [1]: > 30 µM | AC50 [2]: > 30 µM | AC50 [3]: > 30 µM | AC50 [4]: > 30 µM | AC50 [5]: > 30 µM | AC50 [6]: > 30 µM | AC50 [7]: > 30 µM | AC50 [8]: > 30 µM | AC50 [9]: > 30 µM | AC50 [10]: > 30 µM | AC50 [11]: > 30 µM | AC50 [12]: > 30 µM | AC50 [13]: > 30 µM | AC50 [14]: > 30 µM

C[C@]12C/C(=C/O)C(=O)C[C@@H]1CC[C@@H]1[C@@H]2CC[C@@]2(C)[C@H]1CC[C@]2(C)O [OXYMETHOLONE]
AC50 [1]: > 30 µM | AC50 [2]: > 30 µM | AC50 [3]: > 30 µM | AC50 [4]: > 30 µM | AC50 [5]: > 30 µM | AC50 [6]: > 30 µM | AC50 [7]: > 30 µM | AC50 [8]: > 30 µM | AC50 [9]: > 30 µM | AC50 [10]: > 30 µM | AC50 [11]: > 30 µM | AC50 [12]: 21 µM | AC50 [13]: > 30 µM | AC50 [14]: > 30 µM

CCCCOc1ccc(C(=O)CCN2CCCCC2)cc1 [DYCLONINE]
AC50 [1]: 3.9 µM | AC50 [2]: > 10 µM | AC50 [3]: > 10 µM | AC50 [4]: > 10 µM | AC50 [5]: > 30 µM | AC50 [6]: > 10 µM | AC50 [7]: > 10 µM | AC50 [8]: > 30 µM | AC50 [9]: > 30 µM | AC50 [10]: > 10 µM | AC50 [11]: > 10 µM | AC50 [12]: > 30 µM | AC50 [13]: > 30 µM | AC50 [14]: > 10 µM

OC[C@H]1O[C@@H](Oc2cc(O)cc(/C=C/c3ccc(O)cc3)c2)[C@H](O)[C@@H](O)[C@@H]1O [PICEID]
AC50 [1]: > 30 µM | AC50 [2]: > 30 µM | AC50 [3]: > 30 µM | AC50 [4]: > 30 µM | AC50 [5]: > 30 µM | AC50 [6]: > 30 µM | AC50 [7]: > 30 µM | AC50 [8]: > 30 µM | AC50 [9]: > 30 µM | AC50 [10]: > 30 µM | AC50 [11]: > 30 µM | AC50 [12]: > 30 µM | AC50 [13]: > 30 µM | AC50 [14]: > 30 µM

O=C(O)CCNC(=O)c1ccc(/N=N/c2ccc(O)c(C(=O)O)c2)cc1 [BALSALAZIDE]
AC50 [1]: 35.5 µM | AC50 [2]: > 30 µM | AC50 [3]: > 30 µM | AC50 [4]: > 30 µM | AC50 [5]: > 30 µM | AC50 [6]: > 30 µM | AC50 [7]: > 30 µM | AC50 [8]: > 30 µM | AC50 [9]: 33.1 µM | AC50 [10]: > 30 µM | AC50 [11]: > 30 µM | AC50 [12]: > 30 µM | AC50 [13]: > 30 µM | AC50 [14]: > 30 µM
